Source: PubChem BioAssay AID1963443 (Molecular Pharmacology Branch, DTP, NCI, 2024)
pIC50: −log10 of the molar value.

Tested on: MDA-MB-231 complex spheroids, growth inhibition
Assay: Anticancer human tumor MDA-MB-231 cell line growth inhibition [Asc];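 note: spheroids exposed to compounds for 7 days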
Conditions: for pIC50: curve of first compound; for viability, T/C: stronger effect = lower value
Outline: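 Spheroid model: tumor line + HUVEC + hMSC. Single agents and combinations; top conc. at/near clinical Cmax (10 microM if undetermined), half-log dilutions. DMSO stocks at 800-fold test concentration.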

[1] = second compound 0.1 µM, first compound 0.0316 µM
[2] = second compound 0.1 µM, first compound 0.1 µM
[3] = second compound 0.1 µM, first compound 0.316 µM
[4] = second compound 0.1 µM, first compound 1 µM
[5] = second compound 0.1 µM, first compound 3.16 µM
[6] = second compound 0.1 µM, first compound 10 µM
[7] = second compound 0.316 µM, first compound 0.0316 µM
[8] = second compound 0.316 µM, first compound 0.1 µM
[9] = second compound 0.316 µM, first compound 0.316 µM
[10] = second compound 0.316 µM, first compound 1 µM
[11] = second compound 0.316 µM, first compound 3.16 µM
[12] = second compound 0.316 µM, first compound 10 µM
[13] = second compound 1 µM, first compound 0.0316 µM
[14] = second compound 1 µM, first compound 0.1 µM
[15] = second compound 1 µM, first compound 0.316 µM
[16] = second compound 1 µM, first compound 1 µM
[17] = second compound 1 µM, first compound 3.16 µM
[18] = second compound 1 µM, first compound 10 µM
[19] = second compound 3.16 µM, first compound 0.0316 µM
[20] = second compound 3.16 µM, first compound 0.1 µM
[21] = second compound 3.16 µM, first compound 0.316 µM
[22] = second compound 3.16 µM, first compound 1 µM
[23] = second compound 3.16 µM, first compound 3.16 µM
[24] = second compound 3.16 µM, first compound 10 µM
[25] = second compound 10 µM, first compound 0.0316 µM
[26] = second compound 10 µM, first compound 0.1 µM
[27] = second compound 10 µM, first compound 0.316 µM
[28] = second compound 10 µM, first compound 1 µM
[29] = second compound 10 µM, first compound 3.16 µM
[30] = second compound 10 µM, first compound 10 µM

Row | SMILES | pIC50 (second compound 0.1 µM) | pIC50 (second compound 0.316 µM) | pIC50 (second compound 1 µM) | pIC50 (second compound 3.16 µM) | pIC50 (second compound 10 µM) | viability, T/C [1] [%] | viability, T/C [2] [%] | viability, T/C [3] [%] | viability, T/C [4] [%] | viability, T/C [5] [%] | viability, T/C [6] [%] | viability, T/C [7] [%] | viability, T/C [8] [%] | viability, T/C [9] [%] | viability, T/C [10] [%] | viability, T/C [11] [%] | viability, T/C [12] [%] | viability, T/C [13] [%] | viability, T/C [14] [%] | viability, T/C [15] [%] | other results
1 | C=C(F)C(=O)N1CCN(c2nc(OCC3CCCN3C)nc3c2CCN(c2cccc4cccc(Cl)c24)C3)CC1CC#N (stereo not given) + Cc1c(S(C)(=O)=O)c(-c2cc(F)cc(N3CCN(c4ccc(NS(=O)(=O)c5ccc(NC(CCN6CCC(C(=O)OCCCP(=O)(O)O)CC6)CSc6ccccc6)c(S(=O)(=O)C(F)(F)F)c5)cc4)CC3)c2)c(-c2ccc(Cl)cc2)n1C(C)C | 5.64 | 5.68 | 5.73 | 5.76 | 5.77 | 92.2 | 97.2 | 97.2 | 101 | 31.6 | 0.12 | 106 | 108 | 106 | 109 | 18.6 | 0.09 | 103 | 100 | 97.5 | viability, T/C [16]: 97.4%; viability, T/C [17]: 8.81%; viability, T/C [18]: 0.09%; viability, T/C [19]: 95.8%; viability, T/C [20]: 93%; viability, T/C [21]: 94.9%; viability, T/C [22]: 91.8%; viability, T/C [23]: 4.45%; viability, T/C [24]: 0.09%; viability, T/C [25]: 104%; viability, T/C [26]: 100%; viability, T/C [27]: 99.7%; viability, T/C [28]: 91.3%; viability, T/C [29]: 2.9%; viability, T/C [30]: 0.14%
2 | C=CC(=O)N1CCN(c2nc(=O)n(-c3c(C)ccnc3C(C)C)c3nc(-c4c(O)cccc4F)c(F)cc23)C(C)C1 (stereo not given) + Cc1c(S(C)(=O)=O)c(-c2cc(F)cc(N3CCN(c4ccc(NS(=O)(=O)c5ccc(NC(CCN6CCC(C(=O)OCCCP(=O)(O)O)CC6)CSc6ccccc6)c(S(=O)(=O)C(F)(F)F)c5)cc4)CC3)c2)c(-c2ccc(Cl)cc2)n1C(C)C | < 5.00 | < 5.00 | < 5.00 | < 5.00 | < 5.00 | 99.8 | 94.4 | 96.7 | 102 | 105 | 98.4 | 106 | 112 | 111 | 117 | 116 | 116 | 108 | 106 | 100 | viability, T/C [16]: 111%; viability, T/C [17]: 109%; viability, T/C [18]: 96.6%; viability, T/C [19]: 104%; viability, T/C [20]: 96.8%; viability, T/C [21]: 89.1%; viability, T/C [22]: 97.5%; viability, T/C [23]: 105%; viability, T/C [24]: 91.2%; viability, T/C [25]: 96.6%; viability, T/C [26]: 93.7%; viability, T/C [27]: 93.3%; viability, T/C [28]: 96.6%; viability, T/C [29]: 97.1%; viability, T/C [30]: 83.4%
